Measurements as given in publication PMC5045383 (Oncotarget, 2016).

Tests used:
BaF3-FLT3-D835Y = experiment: Anti-proliferation, BaF3 isogenic cell lines; format: cell-based
Description: (§1) Cells were grown in 96-well culture plates (3000/well). […] Cell proliferation was determined after 72 hours drug treatment. […] Cell viability was measured with the CellTiter–Glo assay (Promega, USA), according to the manufacturer's instructions, and luminescence was measured in a multi-label reader (Envision, PerkinElmer, USA). Data were normalized to control groups (DMSO) and represented by the mean of three independent measurements with standard error < 20%. GI50 values were calculated using Prism 5.0 (GraphPad Software, San Diego, CA).
(§2) Retroviral constructs for BaF3-FLT3 mutants were made based on the pMSCVpuro (Clontech) backbone. For TEL-FLT3 vector, the first 1 kb of human TEL gene with an artificial myristoylation sequence ([…]) was cloned into pMSCVpuro retroviral vector, followed by a 3xFLAG tag sequence and a stop codon. Then the kinase domain coding sequence of FLT3 was inserted in-frame between TEL and 3× FLAG sequences. For full-length expression vectors, the coding sequences of FLT3 variants were directly cloned in pMSCVpuro vector with a 3X FLAG tag at the C-terminal end. All mutagenesis studies were performed using the QuikChange Site-Directed Mutagenesis Kit (Stratagene) following the manufacturer's instructions. Retrovirus was packaged in HEK293T cells by transfecting FLT3-containing MSCV vectors together with two helper plasmids, virus supernatants were harvested 48 hours after transfection and filtered before infection. Then BaF3 cells were infected with harvested virus supernatants using spinoculation protocol and stable cell lines were obtained by puromycin selection for 48 hours. The IL-3 concentrations in the culture medium were gradually withdrawn until cells were able to grow in the absence of IL-3.

BaF3-FLT3-ITD-D835Y = experiment: Anti-proliferation, BaF3 isogenic cell lines; format: cell-based
Description: as §1, §2

BaF3-FLT3-ITD-F691L = experiment: Anti-proliferation, BaF3 isogenic cell lines; format: cell-based
Description: as §1, §2

BaF3-FLT3-ITD = experiment: Anti-proliferation, BaF3 isogenic cell lines; format: cell-based
Description: as §1, §2

BaF3-TEL-FLT3-wt = experiment: Anti-proliferation, BaF3 isogenic cell lines; format: cell-based
Description: as §1, §2

BaF3 = experiment: Anti-proliferation, parental BaF3 cells; format: cell-based
Description: as §1
Retroviral constructs for BaF3-FLT3 mutants were made based on the pMSCVpuro (Clontech) backbone. For TEL-FLT3 vector, the first 1 kb of human TEL gene with an artificial myristoylation sequence ([…]) was cloned into pMSCVpuro retroviral vector, followed by a 3xFLAG tag sequence and a stop codon. Then the kinase domain coding sequence of FLT3 was inserted in-frame between TEL and 3× FLAG sequences. For full-length expression vectors, the coding sequences of FLT3 variants were directly cloned in pMSCVpuro vector with a 3X FLAG tag at the C-terminal end. All mutagenesis studies were performed using the QuikChange Site-Directed Mutagenesis Kit (Stratagene) following the manufacturer's instructions. […]

HL-60 = experiment: Colony formation (clonogenic) assay; format: cell-based, human; conditions: HL-60, 15 days
Description: (§3) In brief, 1 mL of 3% agarose combined with 1 mL MOLM-13, MOLM-14, MV4-11, PF-382, U937, HL-60 growth media was used as the bottom agar in a 6-well plate. […] Cells were maintained in a humidified 5% CO2 incubator at 37°C for 15 days. On the 15th day, the numbers of colonies in each well were counted and each measurement was performed in triplicate.

MOLM13 = experiment: Colony formation (clonogenic) assay; format: cell-based, human; conditions: MOLM13, 15 days
Description: as §3

MOLM14 [1] = experiment: Colony formation (clonogenic) assay; format: cell-based, human; conditions: MOLM14, 15 days
Description: as §3

MV4-11 [2] = experiment: Colony formation (clonogenic) assay; format: cell-based, human; conditions: MV4-11, 15 days
Description: as §3

PF382 = experiment: Colony formation (clonogenic) assay; format: cell-based, human; conditions: PF382, 15 days
Description: as §3

U937 = experiment: Colony formation (clonogenic) assay; format: cell-based, human; conditions: U937, 15 days
Description: as §3

[3] = biological target: FLT3-ITD (ITD+kinase domain); experiment: ADP-Glo biochemical assay; conditions: ATP final 50 μM
Description: FLT3 wt/FLT3-ITD/FLT3-D835Y cytoplasmic fragment with his tag was cloned into baculovirus expression vector pFASTHT-A. The recombinant bacmid was transfected into SF9 by Cellfectin (Invitrogen). High titer viral stocks were obtained by two rounds of amplification of the virus. The protein was expressed by infecting SF9 cells with high titer viral stocks for 48 h. Cells were harvested and re-suspended in lysis buffer (50 mM Tris pH 7.5, 150 mM NaCl, and 1 mM PMSF). The cells were lysed by ultra sonication and the cell debris was removed by ultracentrifugation. The supernatant was incubated with Ni-affinity beads (GE). The beads were then washed by lysis buffer containing 50–250 mM imidazole. The elute was loaded to superdex 75. The protein was concentrated to 1 mg/ml and aliquots were frozen and stored at −80°C. The protein was used for ADP-Glo™ kinase assay.
The reaction in each tube was started immediately by adding ATP and kept going for an hour under 37°C. After the tube cooled for 5 minutes at room temperature, 5 μL solvent reactions were carried out in a 384-well plate. […] At the end, 10 μL of kinase detection reagent was added into the well and incubated for 30 minutes to produce a luminescence signal. Luminescence signal was measured with an automated plate reader (Perkin-Elmer Envision) and each measurement was performed in triplicate.

MOLM14 [4] = experiment: Cell cycle analysis (PI, flow cytometry); format: cell-based, human; conditions: 24 hours
Description: (§4) The cells were fixed in 70% cold ethanol and incubated at −20°C overnight, then stained with PI/RNase staining buffer (BD Pharmingen). Flow cytometry was performed using a FACS Calibur (BD), and results were analyzed by ModFit software.

MV4-11 [5] = experiment: Cell cycle analysis (PI, flow cytometry); format: cell-based, human; conditions: 24 hours
Description: as §4

GI50 (BaF3-FLT3-D835Y): 45 nM
GI50 (BaF3-FLT3-ITD-D835Y): 420 nM
GI50 (BaF3-FLT3-ITD-F691L): 430 nM
GI50 (BaF3-FLT3-ITD): 88 nM
GI50 (BaF3-TEL-FLT3-wt): 1000 nM
EC50 (HL-60): 387 nM
EC50 (MOLM13): 170 nM
EC50 (MOLM14 [1]): 61 nM
EC50 (MV4-11 [2]): 92 nM
EC50 (PF382): 861 nM
EC50 (U937): 505 nM
IC50 [3]: 134 nM
SMILES: Cc1[nH]nc2ccc(-c3cncc(OC[C@@H](N)Cc4ccccc4)c3)cc12 [A674563]
GI50 (BaF3): 1600 nM
%G0–G1 (MOLM14 [4]; MOLM14, 0.3 μM): 47.08%
%G2–M (MOLM14 [4]; MOLM14, 0.3 μM): 11.27%
%S (MOLM14 [4]; MOLM14, 0.3 μM): 41.65%
%G0–G1 (MOLM14 [4]; MOLM14, 3 μM): 53.87%
%G2–M (MOLM14 [4]; MOLM14, 3 μM): 22.65%
%S (MOLM14 [4]; MOLM14, 3 μM): 23.49%
%G0–G1 (MV4-11 [5]; MV4-11, 0.3 μM): 68.69%
%G2–M (MV4-11 [5]; MV4-11, 0.3 μM): 2.61%
%S (MV4-11 [5]; MV4-11, 0.3 μM): 28.7%
%G0–G1 (MV4-11 [5]; MV4-11, 3 μM): 68.62%
%G2–M (MV4-11 [5]; MV4-11, 3 μM): 8.56%
%S (MV4-11 [5]; MV4-11, 3 μM): 22.82%
